{"source": "patent US20250320471A1", "about": "“Method for Producing Compounds, Method for Producing Compound Library, Compound Library, and Screening Method” (The University of Tokyo, priority 2021, published 2025)", "molecules": {"B1": {"name": "LimF (wild-type) (protein)", "chain": "MKKRKSSKVFKSTIAPEEKLRYIGNHKQAFDIEPLYPLALFEEFVATTGDCIIECSGKIKQDQLYPARIDLQFSDKHHFHNIHTSIDFLKRAASRTDVNLNLDILATFLAGNFDYSKVQNILAGIDLRQNLGESKLKLFIRIGDYPAKMAVAKHLCNITPESEAMLRSDTLHIGFDFYLDGRSAIELYPELKKDEFNHPFIYNQLKTILSPEALKPLPLCNLFGIGLSPANEANVLYYHLENIEDFLSYFPINDTARRVHDFYLQQEGSRRMWVALSESEMKAGRINNVNLYYSKAFTSQNP"}}, "key": {"PagF": {"test_system": "PagF", "conditions": "Tyr C5 O-prenylation; cited from earlier work"}, "LynF": {"test_system": "LynF", "conditions": "Tyr C5 O-prenylation; cited from earlier work"}, "LimF [1]": {"test_system": "LimF", "assay": "Prenylation of high molecular weight proteins by LimF (MALDI-TOF-MS)", "type": "biochemical, Limnothrix sp. CACIAM 69d", "conditions": "10 μM protein, 10 μM LimF, 2 mM GPP, 20 hours", "description": "Moreover, His-prenylation by LimF was also performed for two types of high molecular weight proteins (acetylated bovine-derived albumin (Ac-BSA (Wako Pure Chemical Industries)) and horse-derived glutathione-S-transferase (GST (Sigma-Aldrich Japan))). Specifically, 10 μM Ac-BSA or 10 μM GST was reacted for 20 hours in the presence of 10 μM LimF and 2 mM GPP under previously optimized standard conditions. After desalting the reaction solution after the reaction by solid phase extraction (SPE C-TIP (Nikkyo Technos)), using sinapinic acid as a matrix, analysis was performed using a matrix-assisted laser desorption ionization-time-of-flight mass spectrometer (MALDI-TOF-MS, ultrafleXtreme manufactured by Bruker Daltonics)."}, "GLP1R": {"molecular_target": "T1, GLP1R (Homo sapiens, UniProt P43220)", "T1 construct": "host or cells: CHO-K1", "T1 sequence (P43220 24-463)": "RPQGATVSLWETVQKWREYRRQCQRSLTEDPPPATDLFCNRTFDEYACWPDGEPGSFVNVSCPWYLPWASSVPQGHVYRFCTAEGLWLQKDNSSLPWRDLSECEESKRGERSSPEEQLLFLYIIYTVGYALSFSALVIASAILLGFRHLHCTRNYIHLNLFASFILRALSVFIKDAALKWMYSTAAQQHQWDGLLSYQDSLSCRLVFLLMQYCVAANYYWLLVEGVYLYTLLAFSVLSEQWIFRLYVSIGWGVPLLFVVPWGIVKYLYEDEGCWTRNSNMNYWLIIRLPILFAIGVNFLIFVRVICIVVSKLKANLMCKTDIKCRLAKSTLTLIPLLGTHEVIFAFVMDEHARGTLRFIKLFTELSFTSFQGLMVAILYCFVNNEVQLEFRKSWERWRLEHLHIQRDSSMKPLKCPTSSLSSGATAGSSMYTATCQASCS", "assay": "cAMP production activation test (cAMP Hunter eXpress GLP1R CHO-K1 GPCR assay kit)", "type": "cell-based", "conditions": "GLP1R CHO-K1 cells", "description": "The concentration range of the used peptides was from 0.33 μM to 20 nM."}, "Serum stability test": {"assay": "Serum stability test", "conditions": "5 μM peptide in human serum at 37° C.", "experimental": "After various incubation times, a sample of 4 μL was taken from the reaction system, and the reaction was stopped by mixing with an equal amount (4 L) of methanol. After centrifugation at 13,000 rpm for 5 minutes, the supernatant was collected, and after adding 4 times the amount of 1% TFA-aqueous solution, centrifugation was performed for an additional 5 minutes. 1 μL of the obtained supernatant was measured by LC/MS, and the amount of each remaining peptide was quantified."}, "DPP-4": {"molecular_target": "DPP-4 (Homo sapiens, UniProt P27487)", "sequence (P27487 whole entry, species assumed)": "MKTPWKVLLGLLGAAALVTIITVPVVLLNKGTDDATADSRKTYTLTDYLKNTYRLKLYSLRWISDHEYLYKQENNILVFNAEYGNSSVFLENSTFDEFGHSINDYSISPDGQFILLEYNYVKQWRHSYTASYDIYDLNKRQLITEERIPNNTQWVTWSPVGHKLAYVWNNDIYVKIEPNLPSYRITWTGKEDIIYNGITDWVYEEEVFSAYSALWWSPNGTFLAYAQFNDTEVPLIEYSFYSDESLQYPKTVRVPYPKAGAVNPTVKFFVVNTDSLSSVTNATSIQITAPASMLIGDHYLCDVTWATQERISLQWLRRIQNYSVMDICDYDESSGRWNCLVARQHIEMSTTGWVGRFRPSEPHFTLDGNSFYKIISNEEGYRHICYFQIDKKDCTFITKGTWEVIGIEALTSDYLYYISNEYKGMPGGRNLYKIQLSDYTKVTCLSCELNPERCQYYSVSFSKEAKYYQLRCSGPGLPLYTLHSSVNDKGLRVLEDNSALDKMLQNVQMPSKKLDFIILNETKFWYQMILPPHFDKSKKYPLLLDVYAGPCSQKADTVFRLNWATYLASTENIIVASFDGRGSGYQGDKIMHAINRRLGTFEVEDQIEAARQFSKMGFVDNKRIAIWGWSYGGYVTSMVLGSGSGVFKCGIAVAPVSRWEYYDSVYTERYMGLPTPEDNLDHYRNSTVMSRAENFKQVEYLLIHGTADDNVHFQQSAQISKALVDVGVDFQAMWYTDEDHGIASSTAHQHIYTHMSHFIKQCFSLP", "assay": "DPP-4 digestion test", "conditions": "5 μM peptide, Tris-Cl pH 8.0, 2.5 ng/L DPP-4, 37° C.", "experimental": "After various incubation times, a sample of 4 μL was taken from the reaction system, and the reaction was stopped by adding 4 times the amount (16 L) of a 1% TFA-aqueous solution. After centrifugation at 13,000 rpm for 5 minutes, 1 μL of the supernatant was measured by LC/MS, and the amount of each remaining peptide was quantified."}, "LimF [2]": {"test_system": "LimF", "assay": "His-prenylation of low molecular weight compounds, peptides and proteins by LimF", "type": "biochemical, Limnothrix sp. CACIAM 69d", "conditions": "125 μM substrate, 100 μM LimF, 2 mM GPP, 20 hours, standard conditions", "description": "Next, various low molecular weight compounds, peptides, and proteins, including various compounds that have already been approved as pharmaceuticals, were subjected to His-prenylation facilitated by LimF."}, "bcLimE2": {"molecular_target": "T2, bcLimE2", "T2 chain": "RYPHEEIP"}, "teR6-H5A": {"molecular_target": "T3, teR6-H5A", "T3 chain": "FRGNATYIPC"}}}
{"molecule": "CC(C)(C)OC(=O)N[C@@H](Cc1ccc(O)cc1)C(=O)O", "note": "[N-boc-L-Tyr]", "values": [{"measurement": "Kcat", "setting": "PagF", "result": 0.183, "unit": "s⁻¹"}, {"measurement": "Km", "setting": "PagF", "result": 6.2, "unit": "mM"}, {"measurement": "Kcat", "setting": "LynF", "result": 0.0177, "unit": "s⁻¹"}, {"measurement": "Km", "setting": "LynF", "result": 14, "unit": "mM"}]}
{"molecule": "Ac-BSA: acetylated bovine-derived albumin", "values": [{"measurement": "number of prenylations by LimF (mass spectrum)", "setting": "LimF [1]", "result": "two locations"}]}
{"molecule": "CC[C@H](C)[C@H](NC(=O)C(Cc1ccccc1)NC(=O)[C@H](CCC(=O)O)NCCCCN[C@@H](CCCCN)C(=O)C(=O)[C@H](C)NC(=O)C(CCC(N)=O)NC(=O)CNC(=O)C(CCC(=O)O)NC(=O)[C@H](CC(C)C)NC(=O)C(Cc1ccc(O)cc1)NC(=O)[C@H](CO)NC(=O)C(CO)NCCCCN[C@H](C(=O)C(=O)[C@H](CC(N)=O)NC(=O)C(CO)NC(=O)[C@@H](NC(=O)C(Cc1ccccc1)NC(=O)[C@@H](NC(=O)CNC(=O)[C@H](CCC(=O)O)NC(=O)C(C)NC(=O)[C@@H](N)Cc1cnc[nH]1)[C@@H](C)O)[C@@H](C)O)C(C)C)C(=O)NC(C)C(=O)N[C@@H](Cc1c[nH]c2ccccc12)C(=O)NC(CC(C)C)C(=O)N[C@H](C(=O)NC(CCCCN)C(=O)NCC(=O)C(=O)[C@H](CCCNC(=N)N)NN)C(C)C", "note": "(some centres unmarked) [GLP-1, HAEGTFTSDVSSYLEGGAAKEFIAWLVKGR]", "values": [{"measurement": "cAMP production activation ability", "setting": "GLP1R", "result": "strongly activated cAMP production"}, {"measurement": "serum stability (remaining peptide by LC/MS)", "setting": "Serum stability test", "result": "rapid degradation"}, {"measurement": "stability in DPP-4 digestion test (remaining peptide by LC/MS)", "setting": "DPP-4", "result": "rapid degradation"}, {"measurement": "His-prenylation efficiency (LC/MS)", "setting": "LimF [2]", "result": 75, "unit": "%"}]}
{"molecule": "B1", "values": [{"measurement": "Km (mM), steady-state kinetics of His-prenylation with GPP", "setting": "bcLimE2", "result": 0.31, "unit": "mM"}, {"measurement": "Km (mM), steady-state kinetics of Tyr-prenylation with GPP", "setting": "teR6-H5A", "result": 7.3, "unit": "mM"}]}
